Measurements: patent publication US20110183949A1, “Use of Fulvestrant in the Treatment of Resistant Breast Cancer” (priority 2000, published 2011)

Key:
[1] = tested on: estrogen receptor (ER); details: relative to oestradiol equivalent of 1.0; cited from earlier work
[2] = tested on: breast cancer; details: women whose breast cancer has progressed following tamoxifen therapy; cited from earlier work
[3] = tested on: MCF-7 human breast cancer cells; details: MCF-7 cells, cited from earlier work; for reduction in MCF-7 cell numbers (inhibition): same conditions for fulvestrant and tamoxifen (tamoxifen: maximum)
[4] = tested on: breast cancer; assay: treatment of breast cancer patients who failed previous aromatase inhibitor treatment; format: in vivo, human; details: patients previously treated with an aromatase inhibitor (optionally also a SERM) and failed
[5] = tested on: MCF-7 tumours; details: cited from earlier work

Row | Compound | relative binding affinity for the estrogen receptor (ER) [1] | efficacy in phase II trial [2] | IC50 ([3]; read-out: IC50, inhibitory effect on the growth of MCF-7 human breast cancer cells) [nM] | reduction in MCF-7 cell numbers (inhibition) [3] [%] | sensitivity of breast cancer to further treatment [4] | duration of growth suppression of established MCF-7 tumours versus tamoxifen ([5]; established MCF-7 tumours, compared with tamoxifen treatment) | delay of tumourgenesis versus tamoxifen-treated mice ([5]; mice) | sensitivity of tamoxifen-resistant MCF-7 tumours to treatment ([5]; tumours grown out after long-term treatment with tamoxifen)
1 | C[C@]12CC[C@@H]3c4ccc(O)cc4C[C@@H](CCCCCCCCC[S+]([O-])CCCC(F)(F)C(F)(F)F)[C@H]3[C@@H]1CC[C@@H]2O (stereo partly drawn) [fulvestrant, 7-alpha-[9-(4,4,5,5,5pentafluoropentylsulphiny)nonyl]-estra-1,3,5(10)-triene-3, 17βdiol] | 0.89 | demonstrated efficacy | 0.29 | 80 | sensitive to further treatment by fulvestrant | twice as long | delayed to a greater extent | remain sensitive to fulvestrant treatment
2 | CC/C(=C(\c1ccccc1)c1ccc(OCCN(C)C)cc1)c1ccccc1 [tamoxifen] | – | – | – | ≤ 50 | – | – | – | –
3 | oestradiol | 1.0 | – | – | – | – | – | – | –
